These results are taken from PubChem BioAssay (NCI).

Holding throughout (experiment): NCI tumour cell line growth inhibition, 48 h
Test [1] deals with A549 NSCLC.
For test [2], the system named is A498 renal.
For test [3], the system named is U251 CNS.
Test [4] concerns LOX IMVI melanoma.
Test [5] concerns HOP-92 NSCLC.
Test [6] deals with SNB-19 CNS.
Test [7] relates to NCI-H460 lung.
Test [8] deals with BT-549 breast.
The subject of test [9] is MDA-MB-435.
For test [10], the system named is T-47D breast.

“And” between values parts separate entries of the source, which are not always exact repeats. Identical values can stand only once.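 Test compounds were applied to cells in 96-well plates for 48 hours at 5 doses. Here, GI50 denotes the concentration required for 50% inhibition of growth. TGI marks complete inhibition of growth.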

`FC(F)(F)c1cccc(-c2nn3ncccc3c2-c2ccnc(Nc3ccc4c(c3)OCCO4)n2)c1`: the GI50 in [1] is 12.8 µM; in test [2], 9.59 µM; in [3] it was 19.5 µM; in [4] it was 10 µM; in test [5], 5.52 µM; in [6] it was above 25 µM. Besides, the GI50 was 11.1 µM in test [7], 16.4 µM in test [8], 13.1 µM in test [9] and 7.37 µM in [10]. Also, the TGI in [1], in [2], in [3], in test [4], in [5] and in test [6] was above 25 µM throughout. The TGI in test [7], in test [8], in [9] and in [10] was above 25 µM each time.

For `CCOC(=O)c1cc2c(cc1Cl)SC(=Nc1ccccc1)N(S(=O)(=O)c1ccc(Br)s1)S2(=O)=O`, the GI50 in test [1] is 21.4 µM; in [2], 16.2 µM; in test [3], 11.7 µM; in test [4], 11.2 µM; in test [5], 10.9 µM; in test [6], 36.6 µM. For the same compound, the GI50 in test [7] was 19.4 µM; in [8], 17.3 µM; in test [9] it was 13.4 µM; in test [10] it was 15.6 µM. For the same compound, the TGI in test [1] is 53.8 µM; in test [2], 34 µM; in test [3], 25.8 µM; in test [4], 24.1 µM; in test [5], 33.6 µM; in test [6], above 100 µM. Moreover, the TGI in [7] turned out to be 51.1 µM; in test [8], 34.8 µM; in test [9], 28.3 µM; in test [10], 53.9 µM.

Regarding `Nc1n[nH]c2ccc([C@@H]3Nc4cc5c(cc4[C@H]4C6CCC(C6)[C@@H]34)C(=O)NC5)cc12` (stereo partly specified), the GI50 in [1] was 1.56 µM; in test [2], 0.13 µM; in test [3] it was 0.418 µM; in test [4] it was 0.291 µM; in [5], 0.375 µM; in [6] it was 0.57 µM. Also, the GI50 was 0.424 µM in test [7], 0.32 µM in [8] and 0.126 µM in test [9]. In addition, the TGI is above 100 µM in test [1]; 0.737 µM in test [2]; above 100 µM in test [3]; above 100 µM in test [4]; above 100 µM in [5]; above 100 µM in test [6]. The TGI is above 100 µM in test [7], 1.71 µM in test [8], 0.49 µM in [9] and above 100 µM in test [10].

Take `Nc1nc(N)c(CCCCc2ccccc2)c(N)n1`: the TGI in test [1], in [2], in [3], in test [4], in test [5] and in test [6] was above 100 µM throughout. The TGI in test [7], in test [8], in test [9] and in [10] was above 100 µM each time.

As to `O=C1C(OCCOc2ccccc2)=C(OCCOc2ccccc2)C(=O)c2ccccc21`, the GI50 in test [1] is 4.62 µM; in [2] it was 18.2 µM; in [3], 5 µM; in test [4], 3.75 µM; in [5], 1.21 µM; in [6] it was 11.1 µM. The GI50 in [7] is 3.05 µM; in test [8] it was above 100 µM; in test [9], 35.4 µM; in test [10], above 100 µM. Further, the TGI in [1], in test [2], in test [3], in test [4], in [5] and in test [6] was above 100 µM in each case. Further, the TGI in [7] is 10.5 µM; in test [8], above 100 µM; in test [9] it was above 100 µM; in [10], above 100 µM.

Regarding `COc1cc2cc(Oc3ccc(NC(=O)c4ccc(Cl)c(Cl)c4)cc3)c(C)nc2cc1OC`, the GI50 is above 100 µM in [1]; 20.6 µM in [2]; above 100 µM in test [3]; above 100 µM in test [4]; 16.1 µM in [5]; above 100 µM in test [6]. Further, the GI50 was 25.4 µM in test [7], 3.91 µM in [8], above 100 µM in [9] and 3.28 µM in test [10]. In addition, the TGI in [1], in test [2], in [3], in [4], in [5] and in test [6] was above 100 µM in each case. The TGI in [7], in [8], in [9] and in test [10] was above 100 µM in each case.

For `Cc1cc(C)c(C2CNCc3cc4c(cc32)CNCC4c2c(C)cc(C)cc2C)c(C)c1` (stereo unspecified), the GI50 in test [1] was 4.53 µg/mL; in test [2], 2.06 µg/mL; in test [3], 2.54 µg/mL; in test [4], 1.85 µg/mL; in test [5], 11.8 µg/mL; in [6] it was 3.46 µg/mL. For the same compound, the GI50 in test [7] is 2.53 µg/mL; in test [8], 4.39 µg/mL; in [9], 1.88 µg/mL; in [10], 2.68 µg/mL. Moreover, the TGI in test [1] amounted to 15.8 µg/mL; in test [2] it was 4.48 µg/mL; in test [3], 5.59 µg/mL; in test [4], 4.31 µg/mL; in test [5] it was 24.9 µg/mL; in test [6], 11 µg/mL. In addition, the TGI in test [7] came out at 6.91 µg/mL; in test [8], 15.9 µg/mL; in test [9], 3.84 µg/mL; in test [10], 7.65 µg/mL.

Consider `O=C(NNS(=O)(=O)c1ccc(Cl)cc1Cl)c1cccnc1Nc1ccc(Cl)cc1`, for which the GI50 in test [1] is 24.4 µM; in test [2], 25 µM; in test [3], 34.4 µM; in [4], 21.1 µM; in test [5], 14.6 µM; in test [6] it was 27 µM. Further, the GI50 is 35.7 µM in [7], 16.8 µM in test [8], 27.3 µM in test [9] and 10.8 µM in test [10]. Moreover, the TGI is 70.1 µM in test [1]; 47.9 µM in [2]; above 100 µM in test [3]; 46.5 µM in test [4]; 40.7 µM in [5]; above 100 µM in test [6]. For the same compound, the TGI is above 100 µM in [7], 35 µM in test [8], 81.7 µM in [9] and 50.7 µM in test [10].

As for `O=C(O)c1ccccc1NC(=S)c1ccccc1`, the TGI in test [1] was above 100 µM; in test [2], above 100 µM; in test [3] it was above 100 µM; in [4], above 100 µM; in [5] it was 44.1 µM; in test [6], above 100 µM. Further, the TGI in [7], in [8], in test [9] and in test [10] was above 100 µM each time.

Take `CC1c2ccccc2CCN1c1ccc(CO)c(Cl)c1` (stereo unspecified): the GI50 in [1] is 0.759 µM; in test [2], 0.0149 µM; in test [3], 0.318 µM; in test [4], 22.2 µM; in test [5] it was 0.19 µM; in [6], 34.5 µM. Further, the GI50 in [7] is 0.0864 µM; in [8], 17.2 µM; in test [9], 17.3 µM; in test [10], 0.053 µM. Moreover, the TGI in test [1] was 17.1 µM; in test [2] it was 0.0888 µM; in test [3], above 46.1 µM; in test [4], 49.8 µM; in [5], 16.6 µM; in test [6], above 100 µM. In addition, the TGI in [7] amounted to 3.3 µM; in test [8], 37.7 µM; in test [9], 53.5 µM; in [10], 0.311 µM.

In the case of `CC(C)C[C@H](NC(=O)CCn1ccc2ccccc2c1=O)B(O)O`, the GI50 in [1] was 8.41 µM; in [2], 1.22 µM; in test [3], 4.23 µM; in [4], 2.11 µM; in test [5], 10.9 µM; in test [6] it was 8.02 µM. The GI50 in [7] was 13 µM; in [8], 2.21 µM; in [9] it was 1.27 µM; in test [10], 3.71 µM. In addition, the TGI is above 100 µM in test [1]; 4.79 µM in test [2]; above 100 µM in test [3]; 6.78 µM in [4]; 67.1 µM in test [5]; above 100 µM in test [6]. In addition, the TGI in test [7] was 56.2 µM; in test [8] it was 17.1 µM; in test [9], 2.81 µM; in test [10], 29.3 µM.

On to `N#CCCNc1nonc1-c1nc2ccccc2n1CC(=O)c1ccc(NC(=O)[C@@H](N)CCCCN)cc1`, for which the GI50 in test [1] is 0.0463 µM; in test [2] it was 0.0154 µM; in test [3] it was 0.0445 µM; in test [4], 0.0513 µM; in [5], 0.487 µM; in [6], above 100 µM. The GI50 is 0.0344 µM in [7], 0.0311 µM in test [8] and above 73.8 µM in test [10]. Further, the TGI in test [1] is above 100 µM; in [2], 1.89 µM; in test [3], above 100 µM; in test [4], above 100 µM; in [5], above 100 µM; in [6], above 100 µM. Moreover, the TGI in [7] was above 100 µM; in test [9], 0.0742 µM; in test [10] it was above 100 µM.

`COc1ccc(/C=C(/C)[N+](=O)[O-])cc1OC`: the GI50 is 6.05 µM and 4.13 µM in [1]; 5.13 µM and 4.73 µM in test [2]; 2.3 µM and 1.67 µM in [3]; 1.6 µM and 1.15 µM in test [4]; 1.78 µM and 2.48 µM in test [5]; 6.82 µM and 3.16 µM in test [6]. Moreover, the GI50 in [7] is 2.78 µM and 3.14 µM; in test [8], 3.74 µM and 2.07 µM; in test [9], 2.17 µM and 2.1 µM; in test [10] it was 1.54 µM and 1.37 µM. Further, the TGI in test [1] was 19.7 µM and 17.7 µM; in test [2], 17.2 µM and 16.6 µM; in test [3], 6.14 µM and 3.14 µM; in test [4], 3.21 µM and 3.55 µM; in test [5] it was 4.52 µM and 5.64 µM; in [6], 20 µM and 12.6 µM. The TGI in [7] was 7.78 µM and 9.48 µM; in test [8], 8.87 µM and 3.92 µM; in test [9] it was 5.55 µM and 5.29 µM; in [10] it was 3.29 µM and 3.23 µM.

As for `O=Nc1c(-c2c(O)[nH]c3ncccc23)[nH]c2ccccc12`, the GI50 is 5.71 µM in test [1]; 1.93 µM in test [2]; above 100 µM in [3]; 5.32 µM in test [4]; above 100 µM in test [6]; 7.25 µM in [7]. Besides, the results for the GI50 in [8], in test [9] and in [10] were 5.41 µM, above 100 µM and 2.99 µM, respectively. The TGI in test [1], in test [2], in test [3], in test [4], in test [5] and in [6] was above 100 µM in each case. Besides, the TGI in [7], in [8], in test [9] and in test [10] was above 100 µM in each case.
